# Values joined by “and” are separate entries in the source; they are usually repeats but may differ in a detail not shown here. Equal entries are not always repeated.
# Columns and labels:
# ML-2 = assay: Proteome analysis (LC-MS/MS); format: cell-based, human; details: ML-2, 25% GI50, 12 h
# Description: After cooling down, lysates were incubated at 25 °C with 10 units of DNAse (Benzonase, Merk) and sonicated for 15 min in a Bioruptor for DNA shearing. Protein concentration was determined using microBCA, using BSA as standard. […] LysC, Wako). […] Peptides (500 μg) were labeled with Thermo Scientific […] Isobaric reagents for 1 h at 25 C. […] The final mixture was desalted using a 500 mg Sep-Pak C18t cartridge (Waters) and dried prior to high pH reverse phase HPLC pre-fractionation. Labeled peptides were fractionated offline through a high pH reverse phase chromatography using an Ultimate 3000 HPLC system equipped with a sample collector. Briefly, peptides were dissolved in 1200 μL of Buffer A (10 mM NH4OH) and loaded onto a XBridge BEH130 C18 column (3.5 μm, 250 mm length and 3.5 mm ID, Waters). […] One-minute fractions (500 μL) from minute 15 to 65 were collected and neutralized with 10% formic acid. […] Pooled fractions were snap-frozen and lyophilized. LC-MS/MS was done by coupling an UltiMate 3000 RSLCnano LC system to an Orbitrap Exploris 480 mass spectrometer (Thermo Fisher Scientific). […] The mass spectrometer was operated in a data-dependent mode, with an automatic switch between MS and MS/MS scans using a top 15 method. (Intensity threshold ≥ 1e4, dynamic exclusion of 20 sec and excluding charges unassigned, +1 and ≥ +7). MS spectra were acquired from 350 to 1500 m/z with a resolution of 60,000 FMHW (200 m/z). Ion peptides were isolated using a 0.7 Th window and fragmented using higher-energy collisional dissociation (HCD) with a normalized collision energy NCE of 36. MS/MS spectra were acquired with a fixed first mass of 120 m/z and a resolution of 45,000 FMHW (200 m/z). […] For total protein analysis, raw files were processed with MaxQuant (v 2.4.9.0) using the standard settings against the same protein database. […] Briefly, proteins/sites with less than eighteen valid values were filtered out. Then, a global normalization of log2-transformed intensities across samples was performed using the LOESS function. Differential analysis was done using the empirical Bayes statistics Limma. […] The FDR was estimated to be below 2% by Benjamini-Hochberg.
# HL-60 = assay: Differentiation-apoptosis assay, CD11b / annexin-V / Sytox Green / myeloid markers flow cytometry; format: cell-based, human; parameters: Cell viability (%): concentration or dose not given beside the values; CD11b levels: unit not given here
# Method in brief: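 HL-60 cells were stained for the myeloid differentiation marker CD11b, with annexin-V and Sytox Green marking apoptosis and cell death. Cells were washed in PBS and resuspended at 1 × 10^6 cells/mL in binding buffer; marker staining of 1 million cells was for 30 min at room temperature in the dark, followed by red-cell lysis. Readout was flow cytometry.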
# M-O7e = assay: Differentiation assay, CD11b / annexin-V flow cytometry; format: cell-based; details: MO7e cell line; replicates 1-3 (Figure 2A);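 note: daily treatment at a GI50-based fraction of each compound's GI50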
# Description: (§1) Next, the cells were washed twice with phosphate-buffered saline (PBS) and resuspended in 1X Binding Buffer at a concentration of 1 × 10^6 cells/mL. An 8-µL aliquot of APC-CD11b (BD Pharmingen, Franklin Lakes, NJ, USA) and 1 µL of FITC annexin-V (AV) (BD Pharmingen, Franklin Lakes, NJ, USA) antibodies were added and incubated for 15 min at room temperature in the dark. Finally, after the addition of 400 µL of 1X Binding Buffer to each tube, samples were collected on a BD FACSCanto flow cytometer (Becton Dickinson, San Jose, CA, USA) and analyzed using FlowJo software.
# UT-7 = assay: as above; format: cell-based; details: UT7 cell line; replicates 1-3 (Figure 2A)
# Description: as §1
# KASUMI-1 = assay: as above; format: cell-based; details: KASUMI-1 cell line; replicates 1-3 (Figure 2A);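 note: daily treatment at a GI50-based fraction of each compound's GI50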
# Description: as §1
# OCI-AML2 = assay: as above; format: cell-based; details: OCI-AML-2 cell line; replicates 1-3 (Figure 2A)
# Description: as §1
# HEL = assay: as above; format: cell-based; details: HEL cell line; replicates 1-3 (Figure 2A)
# Description: as §1
# [1] = tested on: primary AML patient samples; assay: Differentiation assay, CD11b flow cytometry in primary samples; format: cell-based, human; details: for CD11b-positive cells (%): daily 48 h
# Description: as §1
# Peripheral blood (PB) specimens were obtained from preliminarily diagnosed AML patients who had not received any treatment before specimens were collected. All patients gave informed consent for their participation in this study, which was approved by the Clinical Research Ethics Committee of Clínica Universidad de Navarra. Written informed consent was obtained from each participant. PB was mixed with an ammonium chloride-potassium (ACK) buffer lysis (0.15 mol/L NH4Cl, 10 mmol/L KHCO3, 0.1 mmol/L ethylenediaminetetraacetic acid, pH 7.2) at a 1:2 volume ratio by gentle inversion, incubated for 10 min and centrifuged at 200 g for 10 min. The cell pellet was washed twice with PBS and finally resuspended in EGM2 medium (Cambrex Bioscience, Walkersville, MD). EGM2 contains 2% fetal calf serum, hydrocortisone, heparin, antibiotics, epidermal growth factor, human fibroblast growth factor, insulin-like growth factor, vascular endothelial growth factor, and ascorbic acid. The cells were plated at 1 × 10^6 cells/mL and treated daily with 200 and 500 nM of CM-444 and CM-1758 for 48 h. Next, the differentiation assay was performed as described above.
# [2] = HL-60, 48 h treatment, replicates 1-3 (Suppl. Fig. 5A)
# [3] = HL-60, daily treatment, time 0 days, replicates 1-3 (Figure 2B)
# [4] = HL-60, daily treatment, time 2 days, replicates 1-3 (Figure 2B)
# [5] = HL-60, daily treatment, time 4 days, replicates 1-3 (Figure 2B)
# [6] = HL-60, daily treatment, time 6 days, replicates 1-3 (Figure 2B)
# [7] = HL-60, daily treatment, time 8 days, replicates 1-3 (Figure 2B)
smiles,measurement,setting,value
"COc1cc2nc(-c3cc(C)oc3C)cc(NCC3CCN(c4ncc(C(=O)NO)cn4)CC3)c2cc1OC [CM-1758, 2-[4-[[[2-(2,5-dimethyl-3-furyl)-6,7-dimethoxy-4-quinolyl]amino]methyl] -1-piperidyl]pyrimidine-5-carbohydroxamic acid]","proteins significantly regulated, of 8342 quantified",ML-2,8.8%
same,percentage of CD11b,"HL-60; HL-60, 270 nM CM-444 or 300 nM CM-1758 daily for 4 days, before injection",> 90%
same,CD11b (%),"HL-60; HL-60, 48 h",71.2%
same,CD13 (%),"HL-60; HL-60, 48 h",100%
same,CD14 (%),"HL-60; HL-60, 48 h",18.9%
same,HLA-DR (%),"HL-60; HL-60, 48 h",12.2%
same,CD11b (%),HL-60; [2],65.4% and 71.1% and 68.4%
same,Cell viability (%),HL-60; [2],82.8% and 73.6% and 69.5%
same,differentiation level (CD11b),"HL-60; HL-60, after 6–8 days of treatment",~90%
same,Annexin V (%) Replicate 1,"HL-60; HL-60, daily 25% GI50, 48 h",0.26%
same,Annexin V (%) Replicate 2,"HL-60; HL-60, daily 25% GI50, 48 h",0.17%
same,Annexin V (%) Replicate 3,"HL-60; HL-60, daily 25% GI50, 48 h",0.14%
same,CD11b (%) Replicate 1,"HL-60; HL-60, daily 25% GI50, 48 h",55.36%
same,CD11b (%) Replicate 2,"HL-60; HL-60, daily 25% GI50, 48 h",68.41%
same,CD11b (%) Replicate 3,"HL-60; HL-60, daily 25% GI50, 48 h",67.15%
same,Annexin-V (%),HL-60; [3],0% and 4.96% and 3.21%
same,CD11b (%),HL-60; [3],13.33% and 12.5% and 10.8%
same,Annexin-V (%),HL-60; [4],5.66% and 3.51% and 4.98%
same,CD11b (%),HL-60; [4],74.44% and 64.2% and 68.7%
same,Annexin-V (%),HL-60; [5],0% and 4.07% and 5.87%
same,CD11b (%),HL-60; [5],86.57% and 79.2% and 77.3%
same,Annexin-V (%),HL-60; [6],5.76% and 2.68% and 3.98%
same,CD11b (%),HL-60; [6],94.42% and 89.2% and 90.5%
same,Annexin-V (%),HL-60; [7],0% and 5.21% and 6.98%
same,CD11b (%),HL-60; [7],96% and 92.9% and 94.7%
same,CD11b (%),"HL-60; HL-60 cell line, replicates 1-3 (Figure 2A)",81.73% and 89.6% and 92.1%
same,CD11b levels,"HL-60; HL-60 treated daily for 48 h, replicates (Fig 6D)",61.2 and 70.4 and 75.9
same,CD11b (%),M-O7e,17.02% and 15.8% and 12.9%
same,CD11b (%),UT-7,21.8% and 25.6% and 23.1%
same,CD11b (%),KASUMI-1,24.2% and 19.4% and 12.5%
same,CD11b (%),OCI-AML2,39.01% and 39.3% and 37.1%
same,CD11b (%),HEL,14.82% and 10.2% and 20.4%
same,CD11b (%),[1]; primary AML patient sample 1 (Figure 2C),43.21%
same,CD11b (%),[1]; primary AML patient sample 2 (Figure 2C),30.14%
same,CD11b (%),[1]; primary AML patient sample 3 (Figure 2C),23.69%
same,CD11b (%),[1]; primary AML patient sample 4 (Figure 2C),38.45%
same,CD11b (%),[1]; primary AML patient sample 5 (Figure 2C),30.14%
same,CD11b (%),[1]; primary AML patient sample 6 (Figure 2C),35.24%
same,CD11b (%),[1]; primary AML patient sample 7 (Figure 2C),35.47%
same,CD11b (%),[1]; primary AML patient sample 8 (Figure 2C),25.49%
same,CD11b-positive cells (%),"[1]; sample AML-1, 200 nM",30.6%
same,CD11b-positive cells (%),"[1]; sample AML-1, 500 nM",43.2%
same,CD11b-positive cells (%),"[1]; sample AML-2, 200 nM",15.2%
same,CD11b-positive cells (%),"[1]; sample AML-2, 500 nM",30.1%
same,CD11b-positive cells (%),"[1]; sample AML-3, 200 nM",15.5%
same,CD11b-positive cells (%),"[1]; sample AML-3, 500 nM",23.7%
same,CD11b-positive cells (%),"[1]; sample AML-4, 200 nM",21.9%
same,CD11b-positive cells (%),"[1]; sample AML-4, 500 nM",38.4%
same,CD11b-positive cells (%),"[1]; sample AML-5, 200 nM",19.2%
same,CD11b-positive cells (%),"[1]; sample AML-5, 500 nM",30.1%
same,CD11b-positive cells (%),"[1]; sample AML-6, 200 nM",27.2%
same,CD11b-positive cells (%),"[1]; sample AML-6, 500 nM",35.2%
same,CD11b-positive cells (%),"[1]; sample AML-7, 200 nM",30.1%
same,CD11b-positive cells (%),"[1]; sample AML-7, 500 nM",35.5%
same,CD11b-positive cells (%),"[1]; sample AML-8, 200 nM",16.2%
same,CD11b-positive cells (%),"[1]; sample AML-8, 500 nM",25.5%

# — PMC11219871, “Epigenetic-based differentiation therapy for Acute Myeloid Leukemia” (Nature Communications, 2024)
